# Source: patent EP4620949A1, “ACKR3 MODULATORS FOR CARDIOVASCULAR OR ANTIPLATELET THERAPY” (Eberhard Karls Universität Tübingen (Medizinische Fakultät), priority 2024, dated 2025)
# Where “and” joins values, the source holds several entries; their conditions need not be identical. Equal values may be shown once.
# Tested on: platelets
# Test: Flow cytometry assay of platelet degranulation (P-Selectin surface expression in PRP)
# Assay type: cell-based, human
# Settings: PRP pre-incubated with compound (100 µM), then CRP-XL (1 µg/mL); % ±SEM normalized to CRP-XL-treated vehicle PRP
# Protocol: Platelet Degranulation Studies of Derivatives. Concurrent with the β-Arrestin recruitment potency optimization, the compounds were also tested and developed according to their functional activity. To determine the ability of a compound to modulate platelets, P-Selectin surface expression was measured. P-Selectin is a surface protein involved in cell adhesion mechanisms and can be found on activated platelets. After induction of platelet aggregation in platelet-rich plasma (PRP), treatment with the respective compound should therefore lead to a significant reduction in P-Selectin expression. […]. […]. Similarly, platelet degranulation potency was highly sensitive toward "linker"-changes (Structure C, Table 1). A distinct trend could not be registered. […]. Flow Cytometry Assay. The inhibition of platelet degranulation was determined via flow cytometry experiments. Platelets were treated with collagen-related peptide (CRP-XL, CambCol Laboratories, Cambridge, UK) and the platelets' activation state was determined (Geue, S.; Aurbach, K.; Manke, M.-C.; Manukjan, G.; Münzer, P.; Stegner, D.; Brähler, C.; Walker-Allgaier, B.; Märklin, M.; Borst, C. E.; Quintanilla-Fend, L.; Rath, D.; Geisler, T.; Salih, H. R.; Seizer, P.; Lang, F.; Nieswandt, B.; Gawaz, M.; Schulze, H.; Pleines, I.; Borst, O. Pivotal role of pdk1 in megakaryocyte cytoskeletal dynamics and polarization during platelet biogenesis. Blood 2019, 134, 1847-1858; and Malehmir, M.; Pfister, D.; Gallage, S.; Szydlowska, M.; Inverso, D.; Kotsiliti, E.; Leone, V.; Peiseler, M.; Surewaard, B. G. J.; Rath, D.; Ali, A.; Wolf, M. J.; Drescher, H.; Healy, M. E.; Dauch, D.; Kroy, D.; Krenkel, O.; Kohlhepp, M.; Engleitner, T.; Olkus, A.; Sijmonsma, T.; Volz, J.; Deppermann, C.; Stegner, D.; Helbling, P.; Nombela-Arrieta, C.; Rafiei, A.; Hinterleitner, M.; Rail, M.; Baku, F.; Borst, O.; Wilson, C. L.; Leslie, J.; O'Connor, T.; Wes-ton, C. J.; Chauhan, A.; Adams, D. H.; Sheriff, L.; Teijeiro, A.; Prinz, M.; Bogeska, R.; An-stee, N.; Bongers, M. N.; Notohamiprodjo, M.; Geisler, T.; Withers, D. J.; Ware, J.; Mann, D. A.; Augustin, H. G.; Vegiopoulos, A.; Milsom, M. D.; Rose, A. J.; Lalor, P. F.; Llovet, J. M.; Pinyol, R.; Tacke, F.; Rad, R.; Matter, M.; Djouder, N.; Kubes, P.; Knolle, P. A.; Unger, K.; Zender, L.; Nieswandt, B.; Gawaz, M.; Weber, A.; Heikenwalder, M. Platelet gpibα is a mediator and potential interventional target for nash and subsequent liver cancer. Nat. Med. 2019, 25, 641-655). Briefly, PRP was isolated from peripheral human blood collected in citrate-phosphate-dextrose solution with adenine (CPDA) and diluted with phosphate-buffered saline (PBS) (Sigma Aldrich Co., Ltd., St. Luis, Missouri, USA) supplemented with CaCl2 and MgCl2. PRP (106 platelets /sample) was preincubated with the respective compound (100 µM) for 15 min. Samples were treated with 1 µg/ml CRP-XL (CambCol Laboratories, Cambridge, UK) for 30 min at room temperature in the presence of the respective fluorochrome-conjugated antibody against P-Selectin (CD62P-FITC; Beckman Coulter, Brea, CA, USA). Subsequently, samples were fixed in 0.5% paraformaldehyde and analyzed on a FACS-Calibur flow cytometer (FACS-Caliber flow cytometer, Becton-Dickinson, East Rutherford, NJ, USA). Mean fluorescence intensity (MFI) was used as a quantitative measurement of platelet surface expression.
row,Structure (SMILES),P-Selectin expression reduction
1,"CC(C)(C)OC(=O)N1CCCN(C(=O)c2csc(-c3ccccc3)n2)CC1 [Compound 45, tert-butyl 4-(2-phenylthiazole-4-carbonyl)-1,4-diazepane-1-carboxylate]",93%
2,"CC(C)(C)OC(=O)NCCCNC(=O)c1ccc(-c2ccccc2)s1 [Compound 33, tert-butyl (3-(5-phenylthiophene-2-carboxamido)propyl)carbamate]",0±4%
3,"CCN(CCCNC(=O)c1ccc(-c2cccc(F)c2)s1)Cc1ccc(F)cc1 [Compound 32, N-(3-(ethyl(4-fluorobenzyl)amino)propyl)-5-(3-fluorophenyl)thiophene-2-carboxamide]",96±1%
4,"O=C(c1ccc(-c2ccccc2)s1)N1CCCN(Cc2ccccc2)CC1 [Compound 40, (4-benzyl-1,4-diazepan-1-yl)(5-phenylthiophen-2-yl)methanone]",76%
5,"CN(CCCNC(=O)c1ccc(-c2ccccc2)s1)Cc1ccccc1 [Compound 1, N-(3-(benzyl(methyl)amino)propyl)-5-phenylthiophene-2-carboxamide]",71% and 74±9%
6,"CC(C)(C)OC(=O)N1CCN(CCCNC(=O)c2csc(-c3ccccc3)n2)CC1 [Compound 46, tert-butyl 4-(3-(2-phenylthiazole-4-carboxamido)propyl)piperazine-1-carboxylate]",86%
7,"O=C(NCc1cccc([N+](=O)[O-])c1)c1ccc(-c2ccccc2)s1 [Compound 42, N-(3-nitrobenzyl)-5-phenylthiophene-2-carboxamide]",17±3%
8,"O=C(NCCCNCc1ccccc1)c1ccc(-c2ccccc2)s1 [Compound 34, N-(3-(benzylamino)propyl)-5-phenylthiophene-2-carboxamide]",95±1%
9,"CC(C)(C)OC(=O)N1CCN(CCNC(=O)c2cc3ccccc3s2)CC1 [Compound 49, tert-butyl 4-(2-(benzo[b]thiophene-2-carboxamido)ethyl)piperazine-1-carboxylate]",70%

# Molecular target: T1, human ACKR3 (Homo sapiens, UniProt P25106)
# T1 construct: expressed in transfected cells; host or cells: HEK293T
# Test: ACKR3 β-Arrestin recruitment assay (NanoLuc complementation, NanoBiT) in HEK293T cells
# Assay type: cell-based
# Settings: ACKR3; HEK293T cells; average value of three independent experiments
# Protocol: ACKR3 β-Arrestin Recruitment Assay. […] T.; Encell, L. P.; Wood, K. V. Nanoluc complementation reporter optimized for accurate measurement of protein interactions in cells. […] B.; Reynders, N.; Vanderplasschen, A.; Ollert, M.; Bouvier, M.; Szpakowska, M.; Chevigné, A. Proadrenomedullin n-terminal 20 peptides (pamps) are agonists of the chemokine scavenger receptor ACKR3/CXCR7. […] The prepared cells were then treated with compounds at concentrations ranging from 0.3 nM to 100 µM. Induction of β-Arrestin recruitment to receptors was evaluated by measuring bioluminescence with a Mithras LB940 luminometer (Berthold Technologies).
# All curves were fitted to data points generated from the mean of at least three independent experiments. Results with values of p < 0.05 were considered statistically significant.
# T1 sequence (P25106 whole entry): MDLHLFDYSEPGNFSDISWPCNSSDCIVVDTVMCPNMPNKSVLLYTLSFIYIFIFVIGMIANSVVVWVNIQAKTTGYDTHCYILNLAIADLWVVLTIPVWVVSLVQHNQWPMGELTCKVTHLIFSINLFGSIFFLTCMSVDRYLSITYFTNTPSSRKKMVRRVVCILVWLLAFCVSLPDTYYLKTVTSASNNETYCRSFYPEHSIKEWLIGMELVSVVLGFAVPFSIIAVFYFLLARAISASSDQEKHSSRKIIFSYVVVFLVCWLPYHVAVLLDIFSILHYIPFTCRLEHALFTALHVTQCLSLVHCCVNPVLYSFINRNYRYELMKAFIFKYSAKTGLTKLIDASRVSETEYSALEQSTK
# T1 sequence (P49407 whole entry partner): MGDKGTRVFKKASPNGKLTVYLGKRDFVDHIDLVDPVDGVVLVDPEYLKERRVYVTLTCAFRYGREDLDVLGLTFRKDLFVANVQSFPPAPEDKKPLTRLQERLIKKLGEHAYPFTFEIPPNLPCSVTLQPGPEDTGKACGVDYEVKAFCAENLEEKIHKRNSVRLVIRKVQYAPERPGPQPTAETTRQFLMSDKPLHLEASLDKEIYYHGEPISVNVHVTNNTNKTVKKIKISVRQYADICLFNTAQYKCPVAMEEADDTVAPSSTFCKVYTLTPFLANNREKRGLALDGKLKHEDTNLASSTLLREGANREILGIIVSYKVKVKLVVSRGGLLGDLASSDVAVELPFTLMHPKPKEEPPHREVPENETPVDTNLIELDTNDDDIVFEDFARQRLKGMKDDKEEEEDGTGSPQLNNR
Structure (SMILES),EC50,β-Arrestin recruitment EC50
"CC(C)(C)OC(=O)N1CCCN(C(=O)c2csc(-c3ccccc3)n2)CC1 [Compound 45, tert-butyl 4-(2-phenylthiazole-4-carbonyl)-1,4-diazepane-1-carboxylate]",5 µM,–
"CC(C)(C)OC(=O)NCCCNC(=O)c1ccc(-c2ccccc2)s1 [Compound 33, tert-butyl (3-(5-phenylthiophene-2-carboxamido)propyl)carbamate]",–,no activity
"O=C(c1ccc(-c2ccccc2)s1)N1CCCN(Cc2ccccc2)CC1 [Compound 40, (4-benzyl-1,4-diazepan-1-yl)(5-phenylthiophen-2-yl)methanone]",1.2 µM,–
"CC(C)(C)OC(=O)N1CCN(CCCNC(=O)c2csc(-c3ccccc3)n2)CC1 [Compound 46, tert-butyl 4-(3-(2-phenylthiazole-4-carboxamido)propyl)piperazine-1-carboxylate]",2.7 µM,–
"CC(C)(C)OC(=O)N1CCN(CCNC(=O)c2cc3ccccc3s2)CC1 [Compound 49, tert-butyl 4-(2-(benzo[b]thiophene-2-carboxamido)ethyl)piperazine-1-carboxylate]",4.55 µM,–

# Same assay, conditions: efficacy of CXCL12 at 300 nM set as 100%; average of three independent experiments
row,Structure (SMILES),Efficacy (Emax) vs CXCL12
1,"CC(C)(C)OC(=O)N1CCCN(C(=O)c2csc(-c3ccccc3)n2)CC1 [Compound 45, tert-butyl 4-(2-phenylthiazole-4-carbonyl)-1,4-diazepane-1-carboxylate]",29%
2,"O=C(c1ccc(-c2ccccc2)s1)N1CCCN(Cc2ccccc2)CC1 [Compound 40, (4-benzyl-1,4-diazepan-1-yl)(5-phenylthiophen-2-yl)methanone]",32%
3,"CC(C)(C)OC(=O)N1CCN(CCCNC(=O)c2csc(-c3ccccc3)n2)CC1 [Compound 46, tert-butyl 4-(3-(2-phenylthiazole-4-carboxamido)propyl)piperazine-1-carboxylate]",65%
4,"CC(C)(C)OC(=O)N1CCN(CCNC(=O)c2cc3ccccc3s2)CC1 [Compound 49, tert-butyl 4-(2-(benzo[b]thiophene-2-carboxamido)ethyl)piperazine-1-carboxylate]",25%
